# Test results published in US7732482B2, “Compound from Antrodia camphorata and the use thereof” (Simpson Biotech Co., Ltd., priority 2004, dated 2010).
# What was measured:
# TGF-β = TGF-β mediated inflammation and fibrosis, cell model (HSC-T6) and animal model (mouse liver fibrosis); conditions: overall conclusion from the tests of Example 2 (FIGS. 5-10)
# Experimental: The EMSA used the following oligonucleotides: consensus Sp1 (f), 5′-GTTGCGGGGCGGGGCCGAGTG-3′; consensus Sp1 (r), 3′-AACGCCCCGCCCCGGCTCACG-5′. 30 pmol of each of the forward and reverse oligonucleotides placed in a volume of 23 μl of 1× Klenow (DNA polymerase) buffer were heated at 94° C. for 2 min and annealed at room temperature for 30 min. The annealed double-stranded oligonucleotides were end-labeled by a fill-in reaction using DNA polymerase (Klenow)(Promega). One unit of the DNA polymerase (Klenow) and […] of (−32P)dCTP (PerkinElmer Life Sciences) were added into the annealed oligonucleotides and the mixture was incubated at 30° C. for 15 min. […] Samples were analyzed on a 4% polyacrylamide gel (acrylamide/bisacrylamide 29:1 in 0.5×Tris borate-EDTA buffer) at 10 V/cm for 2.5 h. The gel was dried and analyzed by autoradiography. […]
# Liver samples (0.5 g) were lysed (Reporter lysis buffer, Promega, Madison, Wis., USA), the protein were boiled in Laemmli's sample buffer and samples were subjected to 10% SDSPAGE followed by western immunoblotting. […] Immunoreactive bands were detected using the enhanced chemiluminescence (ECL) reagent using SuperSignal West Pico Chemiluminescent Substrate (Pierce, Rockford, Ill., USA). The light emitted by the chemical reaction was detected by exposure to Hyperfilm ECL (Amersham Biosciences, Uppsala, Sweden). […]
# HSC-T6 cells = assay: Measurement of intracellular ROS (DCFH-DA, flow cytometry and confocal microscopy); type: cell-based, mice; conditions: HSC-T6, TGF-β 2 ng/ml; FIGS. 2-4
# Experimental: For visualization and analysis of intracellular ROS, the oxidation-sensitive probe DCFH-DA was used, as previously described. To analyze the net intracellular generation of ROS by flow cytometry, cells were detached by trypsinization after incubation in the absence or presence of the different factors. The cellular fluorescence intensity was measured after 30 min incubation with […] DCFH-DA, by using the same flow cytometer described above. Propidium iodide (0.005%) was used to detect dead cells. For each analysis, 10,000 events were recorded. For confocal microscopy analysis, after incubation of cells in the absence or presence of the different factors, they were washed twice with PBS and the cellular fluorescence intensity was visualized after 30 min of incubation with […] DCFH-DA by using the same confocal microscopy described above. The analysis results were illustrated in FIGS. 2-4. […]
# The influences of hepacin on mice-derived once-activated HSC-T6 line were studied. […] The luciferase activity was determined with or without 10, 5, 1 nM of hepacin in the absence or presence of 2 ng/ml of transforming growth factor TGF-β. The effects of hepacin on generation of intracellular reactive oxygen species (ROS) in HSC-T6 were also analyzed.
compound,measurement,setting,value
"CC(C)=CCOc1ccc(C2=C(CC(C)C)C(=O)NC2=O)cc1 [Compound 2, 3-Isobutyl-4-[4-(3-methyl-2-butenyloxy)phenyl]-1H-pyrrole-2,5-dione]",TGF-β mediated inflammation and fibrosis,TGF-β,Down Regulated TGF-β Mediated Inflammation and Fibrosis
same,ROS scavenging,HSC-T6 cells,ROS Scavenger
